Laboratory results: patent publication US10774098B2, “Nahlsgen optical resolution method” (KYOTO UNIVERSITY, priority 2016, dated 2020)

System: normal human epidermal cells
Assay: glutathione production promotion activity (glutathione reductase recycling assay)
Type: cell-based
Details: for GSH (pmol/μg protein) Mean: cultivation for 24 hours
Source text: The equal amount mixture obtained in Example 1 was used as a sample and evaluated for glutathione production promotion activity by the following procedure.
Specifically, normal human epidermal cells were inoculated to a 96-well microplate housing a normal human epidermic keratinocyte growth medium (trade name HuMedia KG2, supplied by Kurabo Industries Ltd.) in a cell density of 2.0×10^4 cells per 96 wells.
Twenty-four (24) hours after the inoculation, the medium was exchanged with a normal human epidermic keratinocyte growth medium (trade name HuMedia KB2, supplied by Kurabo Industries Ltd.) containing the sample in a predetermined concentration, and the cultivation was continued.
As a positive control, a cultivation was performed by a procedure similar to above, except for using, instead of the sample, Nahlsgen (DL-2-amino-4-[(RSp)-(3-carboxymethylphenoxy)(methoxy)phosphoryl]butanoic acid, trade name GGsTop, supplied by Wako Pure Chemical Industries, Ltd.).
As a blank, a cultivation was performed a procedure similar to above, except for not using the sample.
After cultivation for 24 hours, the cells were disrupted by ultrasonication using a phosphoric acid buffer containing 100-μM phenylmethylsulfonyl fluoride, and the total amount of glutathione was quantitatively measured by the after-mentioned glutathione reductase recycling assay.
Specifically, the disrupted cell suspension was combined with reduced nicotinamide adenine dinucleotide phosphate and glutathione reductase, followed by reaction at 37° C. for 10 minutes.
Next, 0.1 M phosphate buffer solution (containing 0.5 M EDTA, pH 7.5) containing 10 mM 5,5′-dithiobis(2-nitrobenzoic acid) was added, the absorbance (at 450 nm) was measured immediately after addition, and after 30 minute-incubation, and the difference between two measurements ((absorbance after 30 minute-incubation)−(absorbance immediately after addition)) was defined as an index for glutathione synthesis quantity.
The total amount of glutathione in the disrupted cell suspension was calculated on the basis of a calibration curve plotted using oxidized glutathione. The protein content in the disrupted cell suspension was quantitatively determined using the Pierce Microplate BCA Protein Assay Kit (Thermo SCIENTIFIC). The glutathione synthesis quantity was evaluated for differences from the untreated specimen (blank) and from the positive control by a significant difference test using Student's t-test.

Row | Compound | GSH (pmol/μg protein) Mean (Conc. 10.00 μmol/L) [pmol/μg protein] | GSH (pmol/μg protein) Mean (Conc. 2.00 μmol/L) [pmol/μg protein] | GSH (pmol/μg protein) Mean (Conc. 50.00 μmol/L) [pmol/μg protein] | GSH (pmol/μg protein) Mean (Conc. 250.00 μmol/L) [pmol/μg protein] | glutathione (GSH) amount compared with the blank (untreated cells) (result in words, summary of Table 1)
1 | COP(=O)(CC[C@H](N)C(=O)O)Oc1cccc(CC(=O)O)c1 (mixture of isomers) [Nahlsgen, DL-2-amino-4-[(RSp)-(3-carboxymethylphenoxy)(methoxy)phosphoryl]butanoic acid] | 44.7 |  |  |  | 
2 | equal-amount mixture of D-2-amino-4-[(Rp)-(3-carboxymethylphenoxy)(methoxy)phosphoryl]butanoic acid monohydrate and L-2-amino-4-[(Sp)-(3-carboxymethylphenoxy)(methoxy)phosphoryl]butanoic acid monohydrate [Example 1] | 48.1 | 44.2 | 38.0 | 41.5 | significantly increased glutathione (GSH) amount as well as or better than the cells treated with Nahlsgen
